Laboratory results from patent US20140272067A1, “ORGANIC COMPOUNDS” (Givaudan S.A., priority 2011, published 2014).

Assays:
Assay type in all cases: in vivo
[1] = Taste panel: umami and salt intensity of solution B vs reference solution A (Example 2); settings: 10 ppm compound in 0.5% NaCl and 0.03% MSG vs same solution without compound; scale -3 (much lower than base) to 3 (much higher than base); average of 4 flavourists
Protocol: Two solutions were prepared: • A a solution of 0.5% NaCl and 0.03% MSG • B a solution of 0.5% NaCl and 0.03% MSG and 10 ppm Example 1 compound
The samples were tasted by a small group of flavourists (2 male, 2 female, aged between 30 and 60). The intensity of the umami and salt taste of solution B was compared with that of the reference (solution A) and rated according to the following intensity scale: • Taste effect much lower than base: −3 • Taste effect lower than base: −2 • Taste effect slightly lower than base: −1 • Taste effect same as base: 0 • Taste effect slightly higher than base: 1 • Taste effect higher than base: 2 • Taste effect much higher than base: 3
The results (average of ratings given by the flavourists) were: […]

[2] = Taste panel: enhancement effect on NaCl, MSG and ribonucleotides taste (Example 3); settings: 5-10 flavourists
Protocol: Six solutions were prepared: • A a solution of 0.5% NaCl • B a solution of 0.5% NaCl and 0.03% MSG • C a solution of 0.5% NaCl and 0.015% ribonucleotides • D a solution of 0.5% NaCl and 50 ppm Example 1 compound • E a solution of 0.5% NaCl and 0.03% MSG and 50 ppm Example 1 compound • F a solution of 0.5% NaCl and 0.015% ribonucleotides and 50 ppm Example 1 compound
The samples were tasted by a group of 5-10 flavourists aged between 30 and 60. The taste of solution D is compared with that of A to determine the enhancement effect of Example 1 compound on NaCl. Similarly, solution E is compared with solution B and solution F with solution C to determine the enhancement effect of Example 1 compound on MSG and ribonucleotides respectively. The effect is marked between 0 and 10, the greater the value the greater the effect.

[3] = Taste panel: bouillon with compound vs reference bouillon (Example 4); settings: 200 ppm in bouillon (32 g mix in 1 L boiling water); 4 flavourists
Protocol: A bouillon mix was prepared from 155.0 g of sodium chloride, 157.0 g of dextrose monohydrate (ex Tapioca), 0.2 g of celery oleoresin, 0.3 g of oleoresin turmeric Vegex, 0.2 g of oleoresin coriander seed, 444.8 g maltodextrin 5-8 DE, 40.0 g vegetable oil soya bean refined, 30.0 g yeast standard light, 4.0 g of onion powder, 4.0 g of garlic powder, 0.5 g of white pepper and 164.0 g of potato starch.
32 g of the well-mixed ingredients was added to 1 L of boiling water and stirred until completely dissolved.
A small group of flavourists (2 male, 2 female) compared the taste of the reference bouillon with that of a batch of the same bouillon containing 200 ppm of N-methyl-D-aspartic acid.

SMILES | Intensity Taste Salt (NaCl) [1] | Intensity Taste Umami [1] | NaCl Taste ([2]; 50 ppm compound in 0.5% NaCl (solution D) vs solution A (reference 0.0), marked 0 to 10, the greater the value the greater the effect) | Ribo taste ([2]; 50 ppm compound in 0.5% NaCl and 0.015% ribonucleotides (solution F) vs solution C (reference 5.0), marked 0 to 10) | MSG taste ([2]; 50 ppm compound in 0.5% NaCl and 0.03% MSG (solution E) vs solution B (reference 5.0), marked 0 to 10) | Salivating effect of test bouillon vs reference bouillon [3] | Umami taste of test bouillon vs reference bouillon [3]
CNC(CCC(=O)O)C(=O)O (racemic) [N-methyl-DL-glutamic acid, N-methyl-DL-glutamic Acid] | 1.00 | 0.00 |  |  |  |  | 
CN[C@H](CC(=O)O)C(=O)O [N-methyl-D-aspartic acid, N-methyl-D-aspartic Acid] | 0.50 | 0.50 | 0.7 | 6.3 | 5.3 | slightly more salivating | slightly more umami
